Source: US9951060B2, “2-acylaminothiazole derivative or salt thereof” (ASTELLAS PHARMA INC., priority 2014, dated 2018)
Counter-ions that a name gives are not always drawn.

How the values were obtained:
[1] = target: T1, human c-Mpl-introduced Ba/F3 cell (Homo sapiens, UniProt P40238); assay: Test Example 2: human c-Mpl-introduced Ba/F3 cell proliferative activity; format: cell-based; conditions: concentration exhibiting 30% proliferation; 100% = positive control (Example 315 of Patent Document 1) at 1 μM
T1 construct: expressed in transfected cells
T1 sequence (P40238 26-635): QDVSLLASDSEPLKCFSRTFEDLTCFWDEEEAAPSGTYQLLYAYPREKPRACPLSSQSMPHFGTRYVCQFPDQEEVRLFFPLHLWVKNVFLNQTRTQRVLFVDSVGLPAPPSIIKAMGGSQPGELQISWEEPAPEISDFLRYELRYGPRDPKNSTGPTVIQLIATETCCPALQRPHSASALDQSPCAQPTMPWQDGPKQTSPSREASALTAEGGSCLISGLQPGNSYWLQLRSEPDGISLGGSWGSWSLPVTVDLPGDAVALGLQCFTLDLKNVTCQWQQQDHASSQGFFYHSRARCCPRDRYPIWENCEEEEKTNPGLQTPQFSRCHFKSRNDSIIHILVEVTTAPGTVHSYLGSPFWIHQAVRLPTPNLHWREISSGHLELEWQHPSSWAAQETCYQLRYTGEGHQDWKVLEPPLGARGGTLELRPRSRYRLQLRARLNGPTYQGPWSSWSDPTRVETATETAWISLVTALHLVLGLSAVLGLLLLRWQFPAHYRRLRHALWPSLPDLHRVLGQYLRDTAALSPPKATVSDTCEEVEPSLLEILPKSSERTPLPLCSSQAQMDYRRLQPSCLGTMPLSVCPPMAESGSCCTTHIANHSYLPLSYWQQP
Protocol: Test Example 2: Evaluation of Human c-Mpl-Introduced Ba/F3 Cell Proliferative Activity
The human c-Mpl-introduced Ba/F3 cell proliferation action was measured by the following method.
As a positive control, 1-(5-{[4-(4-chlorothiophen-2-yl)-5-{[(2R)-2-methylpyrrolidin-1-yl]methyl}-1,3-thiazol-2-yl]carbamoyl}-3-fluoropyridin-2-yl)piperidine-4-carboxylic acid hydrochloride disclosed as Example 315 in Patent Document 1, represented by the formula (A1) above, was used. Further, it is known that the compound has a good human c-Mpl-introduced Ba/F3 cell proliferative activity as disclosed in Table 1 in Patent Document 1.
a) Construction of Vector Expressing Human c-Mpl Receptor
A human c-Mpl receptor gene (GenBank Accession No.: M90102.1) was transfected into an expression vector pEF-BOS (Nucleic Acids Research, 18: pp 5322 (1990)).
b) Construction of Cell Stably Expressing Human c-Mpl Receptor
A vector expressing a human c-Mpl receptor was introduced into a Ba/F3 cell (RIKEN BRC: RCB0805). For the introduction, an electroporation method was used. pEF-BOS-c-mpl (10 μg), pSV2bsr (1 μg, Kaken Pharmaceutical Co., Ltd.) and 1×10^7 of Ba/F3 cells were put into cuvettes with a gap width of 0.4 cm and electroporated under a condition of 1.5 kV (25 μF) in a Gene Pulser (registered trademark) (BioRad). The cells were incubated in an RPMI-1640 medium supplemented with a 0.5% WEHI conditioned medium (BD Biosciences) and 10% fetal bovine serum for 3 days, and thereafter, and the cells were incubated for 30 days in an RPMI-1640 medium, to which 10 μg/mL blasticidin had been further added, thereby acquiring a drug-resistant clone.
c) Measurement of Cell Proliferative Activity
The cells obtained in b) above were dispensed into an RPMI-1640 medium supplemented with a 0.5% WEHI conditioned medium and 10% fetal bovine serum, and used. The day before the experiment, the test substances (final concentration of 100 nM to 10 μM) which had been dissolved in a medium for assay (an RPMI-1640 medium supplemented with 10% fetal bovine serum) were added to a 384-well plate (Model No. 781185, Greiner bio-one). The cells after the medium had been replaced with the medium for assay were dispensed to a 384-well plate to which the test substance had been added, to 1×10^4 cells/well, and incubated overnight at 37° C. and 5% CO2. On the experiment day, a solution of a Cell counting kit (Dojindo Laboratories) was added to each well of the 384-well plate, and the cells were incubated for about 5 hours at 37° C. and 5% CO2. Thereafter, the absorbance (an absorbance wavelength of 450 nm) of each well was measured using Safire^2 (registered trademark) (TECAN), and used as an index for the number of cells. Further, as a negative control, a well to which the test substances had not been added was prepared.
By taking the absorbance of the well to which the test substance had been not added as 0% and taking the absorbance in a case where the positive control had been added to a final concentration of 1 μM as 100%, a cell proliferation rate (%) was calculated from the absorbance of the well to which the test substance had been added.

rat isolated bladder = assay: Test Example 3: effect on electrical field stimulation-induced contraction in rat isolated bladder; conditions: 10 μM test substance; AUC of contraction, value before treatment = 100%; SD female rat bladder
Protocol: Test Example 3: Effect on Electrical Field Stimulation-Induced Contraction in Rat Isolated Bladder
As an effect on the nerve stimulation-dependent bladder contraction in in vitro, the effect of the Example compounds of the present invention in the electrical field stimulation-induced contraction of the rat isolated bladder was measured by the following method. That is, a bladder specimen having a width of about 2 mm and a length of about 10 mm in the longitudinal direction from the bladder isolated from a Sprague-Dawley (SD) female rat (Japan SLC, Inc.) was prepared. The prepared bladder specimen was suspended in an organ bath filled with 10 mL of a Krebs-Henseleite solution. The Krebs-Henseleite solution was aerated at 95% 02 and 5% CO2, and kept at 37° C. After carrying out stabilization at an initial tension of 1 g, the contraction was caused twice with 60 mM KCl. After stabilization of the specimen with a Krebs-Henseleite solution, the contraction was caused by carrying out electrical field stimulation at 20 V with an electrical stimulation device (Nihon Kohden) (a stimulation frequency of 8 Hz, a pulse width of 0.3 msec, and a stimulation time of 10 seconds). By repeating the transmural electrical stimulation at an interval of 2 minutes, a voltage was adjusted to obtain a contraction height of approximately 50% of the contractile response at 20 V. After the contraction by electrical field stimulation had been stabilized, 10 μL of the test substances dissolved in 100% dimethyl sulfoxide in advance (final concentrations of 3 μM, 10 μM, and 30 μM) was added thereto. The test substances were cumulatively administered at the following concentrations after the low-concentration contractile response had been stabilized. The response was taken into a personal computer through a PowerLab (registered trademark) (AD Instruments, Inc.), and analyzed by LabChart (registered trademark) (AD Instruments, Inc.). When the area under the response (area under curve, AUC) in each contraction response was calculated and the value before treatment with the test substance was taken as 100%, the enhancement rate (% of pre) of the isolated bladder contractions after treatment with the test substance was calculated.

| Compound | human c-Mpl-introduced Ba/F3 cell proliferative activity EC30 [1] | Enhancement rate (% of pre) of isolated bladder contractions (rat isolated bladder) |
| --- | --- | --- |
| C[C@@H]1CCCN1Cc1sc(NC(=O)c2cnc(N3CCN(CCC(=O)O)C[C@H]3C)cn2)nc1-c1cc(C(F)(F)F)cs1 [Example 3, 3-[(3R)-3-methyl-4-{5-[(5-{[(2R)-2-methylpyrrolidin-1-yl]methyl}-4-[4-(trifluoromethyl)thiophen-2-yl]-1,3-thiazol-2-yl)carbamoyl]pyrazin-2-yl}piperazin-1-yl]propanoic acid dihydrochloride] | 0.78 µM | 152 % of pre |
| COc1ccc(-c2nc(NC(=O)c3cnc(N4CCN(CCC(=O)O)[C@@H](C)C4)cn3)sc2CN2CCC[C@H]2C)cc1C(F)(F)F [Example 10] | >10 µM | 161 % of pre |
| C[C@@H]1CCCN1Cc1sc(NC(=O)c2cnc(N3CCN(CCC(=O)O)CC3)cn2)nc1-c1cc(Cl)cc(C(F)(F)F)c1 [Example 11] | >10 µM | 123 % of pre |
| C[C@@H]1CCCN1Cc1sc(NC(=O)c2cnc(N3CCN(CC(=O)O)CC3)cn2)nc1-c1cc(Cl)cc(C(F)(F)F)c1 [Example 13] | >10 µM | 126 % of pre |
| C[C@@H]1CCCN1Cc1sc(NC(=O)c2cnc(N3CCN(CCC(=O)O)CC3)cn2)nc1-c1ccc(Cl)c(C(F)(F)F)c1 [Example 15] | >10 µM | 124 % of pre |
| C[C@@H]1CCCN1Cc1sc(NC(=O)c2cnc(N3CCN(CCCC(=O)O)CC3)cn2)nc1-c1cc(F)cc(C(F)(F)F)c1 [Example 21] | >10 µM | 141 % of pre |
| CC[C@@H]1CCCN1Cc1sc(NC(=O)c2cnc(N3CCN(CCC(=O)O)C[C@@H]3C)cn2)nc1-c1cc(Cl)cs1 [Example 28] | 5.3 µM | 123 % of pre |
| CC[C@@H]1CCCN1Cc1sc(NC(=O)c2cnc(N3CCN(CCC(=O)O)CC3)cn2)nc1-c1ccc(OC)c(C(F)(F)F)c1 [Example 42] | >10 µM | 158 % of pre |
| COc1c(Cl)cc(-c2nc(NC(=O)c3cnc(N4CCN(CCC(=O)O)CC4)cn3)sc2CN2CCC[C@H]2C)cc1Cl [Example 43] | >10 µM | 179 % of pre |
| Cc1cc(OC(F)(F)F)cc(-c2nc(NC(=O)c3cnc(N4CCN(CCC(=O)O)CC4)cn3)sc2CN2CCC[C@H]2C)c1 [Example 46] | >10 µM | 132 % of pre |
| Cc1cc(OC(F)(F)F)cc(-c2nc(NC(=O)c3cnc(N4CCN(C(C)C(=O)O)CC4)cn3)sc2CN2CCC[C@H]2C)c1 (some centres unmarked) [Example 48] | >10 µM | 143 % of pre |
| C[C@@H]1CCCN1Cc1sc(NC(=O)c2cnc(N3CCN(CCC(=O)O)CC3)cn2)nc1-c1cc(F)cc(C(F)(F)F)c1 [Example 49] | >10 µM | 153 % of pre |
| C[C@@H]1CCCN1Cc1sc(NC(=O)c2cnc(N3CCN(CCC(=O)O)CC3)cn2)nc1-c1cc(Cl)cs1 [Example 50] | 2.3 µM | 183 % of pre |
| C[C@@H]1CCCN1Cc1sc(NC(=O)c2cnc(N3CCN(CC(=O)O)CC3)cn2)nc1-c1cc(Cl)cs1 [Example 51] | 2.6 µM | 151 % of pre |
| COc1cc(-c2nc(NC(=O)c3cnc(N4CCN(CCC(=O)O)CC4)cn3)sc2CN2CCC[C@H]2C)cc(C(F)(F)F)c1 [Example 52] | >10 µM | 132 % of pre |
| C[C@@H]1CCCN1Cc1sc(NC(=O)c2cnc(N3CCN(CCC(=O)O)CC3)cn2)nc1-c1ccc(F)c(C(F)(F)F)c1 [Example 60] | 9.7 µM | 144 % of pre |
| C[C@@H]1CCCN1Cc1sc(NC(=O)c2cnc(N3CCN(CC(=O)O)CC3)cn2)nc1-c1ccc(F)c(C(F)(F)F)c1 [Example 61] | 1.3 µM | 176 % of pre |
| CC(C(=O)O)N1CCN(c2cnc(C(=O)Nc3nc(-c4cc(F)cc(C(F)(F)F)c4)c(CN4CCC[C@H]4C)s3)cn2)CC1 (some centres unmarked) [Example 64] | >10 µM | 162 % of pre |
| CC[C@@H]1CCCN1Cc1sc(NC(=O)c2cnc(N3CCN(CCC(=O)O)CC3)cn2)nc1-c1cccc(C(F)(F)F)c1 [Example 65] | >10 µM | 127 % of pre |
